Our source for the IC50 values is US10052330B2, “Substituted pyrido[3,4-b]pyrazines as Syk inhibitors” (HUTCHISON MEDIPHARMA LIMITED, priority 2011, dated 2018).

The target of one experiment is Syk kinase (Homo sapiens, UniProt P43405). The experiment is described as follows: Syk kinase enzymatic assay (Kit-Tyr 2 Peptide). In kind it is biochemical. Particulars: 8 concentrations, 1 μM down to 0.0003 μM; upper bound of each range is 'less than'; read-out: IC50: Enzymatic Activity (Syk kinase).
A further experiment deals with RBL-2H3 cells. Nature of the experiment: IgE-induced Beta-hexosaminidase secretion in RBL-2H3 cells. The format is cell-based. As to conditions: Rattus norvegicus, RBL-2H3, RBL-2H3 cells sensitized with SPE-7, stimulated with DNP-BSA; upper bound of each range is 'less than'; read-out: IC50, IgE-induced Beta-hexosaminidase secretion.

Broadly, the IC50 is the concentration that gives 50% inhibition. On to `CC1CN(c2ccc(-c3cc4nccnc4c(NCC4CNCCC4(F)F)n3)cc2)CCO1` (stereo not drawn) [Compound 309], for which the IC50 at Syk kinase and with RBL-2H3 cells was 1 to 100 nM in each case.
On to `CC(=O)N(C)C1CCN(c2ccc(-c3cc4nccnc4c(NC[C@@H]4CNCCO4)n3)cc2)CC1` [Compound 420], for which the figures for the IC50 at Syk kinase and in the experiment with RBL-2H3 cells were 1 to 100 nM and 100 to 1000 nM, respectively.
As for `CN1CCN(c2ccc(-c3cc4nccnc4c(NC[C@@H]4CNCCC4(F)F)n3)cc2)CC1` [Compound 372, (S)—N-((4,4-difluoropiperidin-3-yl)methyl)-7-(4-(4-methylpiperazin-1-yl)phenyl)pyrido[4,3-b]pyrazin-5-amine], the IC50 was in the range of 1 to 100 nM at Syk kinase and 100 to 1000 nM with RBL-2H3 cells.
Take `O=C(C1CCC1)N1CCN(c2ccc(-c3cc4nccnc4c(NC[C@@H]4CNCCO4)n3)cc2)CC1` [Compound 413]: the IC50 on Syk kinase and with RBL-2H3 cells was 1 to 100 nM in each case.
As to `CS(=O)(=O)N1CCN(c2ccc(-c3cc4nccnc4c(NC[C@@H]4CNCCO4)n3)cn2)CC1` [Compound 440], the IC50 on Syk kinase was 1 to 100 nM; with RBL-2H3 cells, 100 to 1000 nM.
Take `CC(C)Oc1ccc(-c2cc3nccnc3c(NC[C@H]3CCCNC3)n2)cc1F` [Compound 86]: the results for the IC50 on Syk kinase and in the experiment on RBL-2H3 cells were 1 to 100 nM and 100 to 1000 nM, respectively.
As to `CS(=O)(=O)N1CCC(n2cc(-c3cc4nccnc4c(NCC4CNCCC4(F)F)n3)cn2)CC1` (stereo not drawn) [Compound 321], the IC50 at Syk kinase and in the experiment on RBL-2H3 cells was 1 to 100 nM each time.
With `COCCOc1ccc(-c2cc3nccnc3c(NCC3CCCNC3)n2)cc1` (stereo not drawn) [Compound 78], the IC50 fell in the range of 1 to 100 nM on Syk kinase and 100 to 1000 nM in the experiment with RBL-2H3 cells.
As for `COc1ccc(-c2cc3nccnc3c(NCC3(F)CCCNC3)n2)cc1F` (stereo not drawn) [Compound 255], the IC50 at Syk kinase is 100 to 1000 nM; with RBL-2H3 cells, 1 to 100 nM.
On to `CC(F)(F)C(=O)N1CCN(c2ccc(-c3cc4nccnc4c(NC[C@@H]4CNCCO4)n3)cc2)CC1` [Compound 438], for which the IC50 on Syk kinase and in the experiment on RBL-2H3 cells was 1 to 100 nM throughout.
For `CNc1ccc(-c2cc3nccnc3c(NCC3CNCCC3(F)F)n2)cn1` (stereo not drawn) [Compound 302], the IC50 on Syk kinase and in the experiment with RBL-2H3 cells was 1 to 100 nM in each case.
With `CS(=O)(=O)N1CCC(c2ccc(-c3cc4nccnc4c(NCC4CNCCC4(F)F)n3)cc2)CC1` (stereo not drawn) [Compound 447], the IC50 at Syk kinase and in the experiment with RBL-2H3 cells was 1 to 100 nM in each case.
Regarding `Fc1cc(-c2cc3nccnc3c(NC[C@@H]3CNCCO3)n2)ccc1N1CCCOCC1` [Compound 219], the IC50 on Syk kinase and in the experiment with RBL-2H3 cells was 1 to 100 nM each time.
In the case of `CC(C)c1ccc(-c2cc3nccnc3c(NCC3CCCNC3)n2)cc1` (stereo not drawn) [Compound 46], the IC50 at Syk kinase is 1 to 100 nM; in the experiment on RBL-2H3 cells, 100 to 1000 nM.
For `C[C@H]1CN(c2ccc(-c3cc4nccnc4c(NC[C@@H]4CNCCO4)n3)cc2F)CCO1` [Compound 386, 7-(3-fluoro-4-((S)-2-methylmorpholino)phenyl)-N—((S)-morpholin-2-ylmethyl)pyrido[4,3-b]pyrazin-5-amine], the IC50 on Syk kinase is 1 to 100 nM; in the experiment with RBL-2H3 cells, 100 to 1000 nM.
`CS(=O)(=O)N1CCC(c2ccc(-c3cc4nccnc4c(NCC4CNC(=O)CO4)n3)cc2)CC1` (stereo not drawn) [Compound 501]: the IC50 at Syk kinase and with RBL-2H3 cells was 1 to 100 nM throughout.
On to `COc1ccc(-c2cc3nccnc3c(NCC3CNCCC3(F)F)n2)cc1Cl` (stereo not drawn) [Compound 298], for which the IC50 on Syk kinase and in the experiment with RBL-2H3 cells was 1 to 100 nM each time.
Consider `CC(=O)N1CCN(c2ccc(-c3cc4nccnc4c(NCC4CNCCC4(F)F)n3)cc2F)CC1` (stereo not drawn) [Compound 318], for which the IC50 at Syk kinase and in the experiment on RBL-2H3 cells was 1 to 100 nM in each case.
Regarding `Clc1cc(-c2cc3nccnc3c(NCC3CNCCCO3)n2)ccc1N1CCOCC1` (stereo not drawn) [Compound 223], the IC50 on Syk kinase and with RBL-2H3 cells was 100 to 1000 nM each time.
As to `c1cnc2c(NC[C@H]3CCCNC3)nc(-c3ccc(N4CCOCC4)nc3)cc2n1` [Compound 87], the values for the IC50 on Syk kinase and in the experiment on RBL-2H3 cells were 1 to 100 nM and 100 to 1000 nM, respectively.
Turning to `CCS(=O)(=O)N1CCN(c2ccc(-c3cc4nccnc4c(NC[C@@H]4CN(C(C)=O)CCO4)n3)cc2)CC1` [Compound 510], the IC50 was in the range of 1 to 100 nM on Syk kinase and 100 to 1000 nM with RBL-2H3 cells.
Turning to `CN1CCN(c2ccc(-c3cc4nccnc4c(N4CC[C@@H](CO)C4)n3)cc2)CC1` [Compound 127], the IC50 on Syk kinase is 1 to 100 nM; in the experiment with RBL-2H3 cells, 100 to 1000 nM.
For `N#CCC(=O)N1CCN(c2ccc(-c3cc4nccnc4c(NC[C@@H]4CNCCO4)n3)cc2)CC1` [Compound 409], the IC50 at Syk kinase lay within 1 to 100 nM; in the experiment with RBL-2H3 cells, 100 to 1000 nM.
For `Fc1cc(-c2cc3nccnc3c(NCC3CNCCC3(F)F)n2)ccc1N1CCOCC1` (stereo not drawn) [Compound 294] the same measures were 1 to 100 nM and 1 to 100 nM.
In the case of `CC1CN(c2ccc(-c3cc4nccnc4c(NC[C@@H]4CNCCO4)n3)cc2F)CCO1` (mixture of isomers) [Compound 250], the IC50 at Syk kinase was in the range of 100 to 1000 nM; with RBL-2H3 cells it was 1 to 100 nM.
As for `C[C@@H]1CN(c2ccc(-c3cc4nccnc4c(NC[C@@H]4CNCCO4)n3)cc2F)CCO1` [Compound 387, 7-(3-fluoro-4-((R)-2-methylmorpholino)phenyl)-N—((S)-morpholin-2-ylmethyl)pyrido[4,3-b]pyrazin-5-amine], the IC50 on Syk kinase and in the experiment with RBL-2H3 cells was 1 to 100 nM each time.
Take `CCN1CCN(c2ccc(-c3cc4nccnc4c(NC[C@@H]4CN(C(=O)C(F)F)CCO4)n3)cc2)CC1` [Compound 488]: the IC50 on Syk kinase and in the experiment with RBL-2H3 cells was 1 to 100 nM in each case.
In the case of `CCn1cc(-c2cc3nccnc3c(NC[C@@H]3CNCCC3(F)F)n2)cn1` [Compound 392, (S)—N-((4,4-difluoropiperidin-3-yl)methyl)-7-(1-ethyl-1H-pyrazol-4-yl)pyrido[4,3-b]pyrazin-5-amine], the IC50 on Syk kinase and in the experiment on RBL-2H3 cells was 1 to 100 nM throughout.
For `C[C@H]1CN(c2ccc(-c3cc4nccnc4c(NCC4CNCCC4(F)F)n3)cc2)CCO1` (single isomer, unassigned) [Compound 396], the IC50 on Syk kinase and with RBL-2H3 cells was 1 to 100 nM throughout.
On to `O=C([C@H]1CCCO1)N1CCN(c2ccc(-c3cc4nccnc4c(NC[C@@H]4CNCCO4)n3)cc2)CC1` [Compound 416], for which the IC50 on Syk kinase and in the experiment with RBL-2H3 cells was 1 to 100 nM in each case.
On to `Fc1cc(-c2cc3nccnc3c(NC[C@@H]3CNCCC3(F)F)n2)ccc1N1CCOCC1` [Compound 368, (S)—N-((4,4-difluoropiperidin-3-yl)methyl)-7-(3-fluoro-4-morpholinophenyl) pyrido[4,3-b]pyrazin-5-amine], for which the IC50 on Syk kinase and with RBL-2H3 cells was 1 to 100 nM throughout.
Turning to `FC(F)(F)c1ccc(-c2cc3nccnc3c(NCC3CCCNC3)n2)cc1` (stereo not drawn) [Compound 63], the results for the half-inhibitory concentration (IC50) at Syk kinase and in the experiment on RBL-2H3 cells were 1 to 100 nM and 100 to 1000 nM, respectively.
`Cc1cc(-c2cc3nccnc3c(N3CCC4(CCCNC4)C3)n2)ccc1N1CCOCC1` (stereo not drawn) [Compound 110]: the IC50 on Syk kinase and in the experiment with RBL-2H3 cells was 1 to 100 nM throughout.
For the molecule `CNc1ccc(-c2cc3nccnc3c(NC[C@@H]3CCCNC3)n2)cc1` [Compound 84], the IC50 on Syk kinase and in the experiment with RBL-2H3 cells was 100 to 1000 nM in each case.
On to `COc1ccc(-c2cc3nccnc3c(NC[C@H]3CNCCO3)n2)cc1F` [Compound 95], for which the IC50 on Syk kinase and with RBL-2H3 cells was 100 to 1000 nM each time.
On to `N#CCCC(=O)N1CCN(c2ccc(-c3cc4nccnc4c(NC[C@@H]4CNCCO4)n3)cc2)CC1` [Compound 434], for which the IC50 at Syk kinase was in the range of 1 to 100 nM; in the experiment on RBL-2H3 cells it was 100 to 1000 nM.
